Assay results as given in article PMC3753754, “Andrographis paniculata Extract and Andrographolide Modulate the Hepatic Drug Metabolism System and Plasma Tolbutamide Concentrations in Rats” (Evidence-based Complementary and Alternative Medicine : eCAM, 2013).
Marks after values point to notes of the source that are not given here.

How the values were obtained:
[1] = system: CYP3A; assay: Midazolam 1-hydroxylation in liver microsomes of treated rats; assay type: in vivo; conditions: rat liver microsomes; oral 2 g/kg APE or 50 mg/kg AND daily for 5 days
Experimental: Liver was homogenized (1 : 4, w/v) in an ice-cold potassium phosphate buffer (pH 7.4) containing 7.4 mM K2HPO4, 2.6 mM KH2PO4, 1.15% KCl, and 1 mM phenylmethylsulfonyl fluoride (PMSF). Tissue homogenates were centrifuged at 10,000 ×g for 30 min at 4°C. The resulting supernatant was then centrifuged at 105,000 ×g for 1 h at 4°C. The microsomes thus obtained were washed several times to get rid of possible tolbutamide contamination and this can avoid tolbutamide interference of CYP activity, and the microsomes were then suspended in potassium phosphate buffer (pH 7.7) containing 7.5 mM K2HPO4, 14.5 mM KH2PO4, and 1 mM EDTA. […] Metabolites of each CYP enzyme reaction were determined by LC/MS as reported previously. The contents of total CYP and cytochrome b5 were quantified by the method of Omura and Sato [29]. Enzyme activity is expressed as picomoles of metabolite formed per minute per milligram of protein. The NADPH-CYP reductase activity was measured as described by Phillips and Langdon with the use of cytochrome c as the substrate. The microsomal protein concentration was determined by using a Coomassie Plus protein assay kit (Pierce, Rockford, IL, USA).

[2] = system: UDP-glucuronosyltransferase; assay: Microsomal UGT activity (p-nitrophenol substrate) in liver of treated rats; assay type: in vivo; conditions: rat liver; oral 2 g/kg APE or 50 mg/kg AND daily for 5 days
Experimental: (§1) The microsomal UGT activity was determined by using p-nitrophenol as the substrate. The rate of formation of p-nitrophenol glucuronic acid was measured by HPLC/UV [31]. GST activity was determined spectrophotometrically by measuring the formation rate of GSH conjugates.

[3] = system: Glutathione S-transferase; assay: GST activity in liver of treated rats; assay type: in vivo; conditions: rat liver; oral 2 g/kg APE or 50 mg/kg AND daily for 5 days
Experimental: as §1

[4] = system: CYP2E1; assay: Immunoblot and RT-PCR of hepatic CYP2E1 in treated rats; assay type: in vivo; conditions: rat liver; APE or andrographolide for 5 days
Experimental: Aliquots of microsomal protein (10 μg) were electrophoresed in an SDS-polyacrylamide gel, and proteins were then transferred to polyvinylidene fluoride membranes. After blocking, membranes were hybridized with antibodies to CYP1A1, CYP1A2, CYP2C6, CYP2C11, CYP2D1, CYP2E1, CYP3A1, and CYP3A2.
Total RNA in liver samples was extracted by using the Trizol reagent (1 : 20, w/v). […] The sequences for the PCR primers were as follows: for CYP1A1 (forward: 5′-[…]-3′; reverse: 5′-[…]-3′), CYP1A2 (forward: 5′-[…]-3′; reverse: 5′-[…]-3′), CYP2C6 (forward: 5′-[…]-3′; reverse: 5′-[…]-3′), CYP2C11 (forward: 5′-[…]-3′; reverse: 5′-[…]-3′), CYP2D1 (forward: 5′-[…]-3′; reverse: 5′-[…]-3′), CYP2E1 (forward: 5′-[…]-3′; reverse: 5′-[…]-3′), CYP3A1 (forward: 5′-[…]-3′; reverse: 5′-[…]-3′), CYP3A2 (forward: 5′-[…]-3′; reverse: 5′-[…]-3′), and P-glycoprotein (forward: 5′-[…]-3′; reverse: 5′-[…]-3′). The PCR for CYP1A1 was performed as follows: 5 min at 95°C and then 35 cycles of 30 s at 94°C, 30 s at 54°C, and 60 s at 72°C. […] The PCR amplicons were then electrophoresed in 1% agarose gels containing 40 mM Tris/20 mM glacial acetic acid/2 mM EDTA buffer, and the relative densities of the PCR products were quantitated by use of Image Gauge software (Fujifilm, Tokyo, Japan). […]

[5] = Glucose tolerance test after tolbutamide in high-fat diet-induced obese mice; assay type: in vivo, C57BL/6 mice
Experimental: Eleven-month-old high-fat diet-fed (45% of energy from fat; Research Diet Inc., New Brunswick, NJ) C57BL/6 mice were obtained from the National Health Research Institute (Miaoli, Taiwan). Control mice were orally administered 0.5% methyl cellulose (10 mL/kg). […] After the 5th daily dose, the mice were deprived of food overnight. On day 6, a 20 mg/kg oral dose of tolbutamide, as a solution in Cremophor EL/ethanol/water (30/10/60, v/v/v), was administered to each mouse. Thirty minutes later, a 1 g/kg dose of glucose, as a solution in water, was administered orally according to the method described by Zong et al.. Serial blood samples were collected up to 8 h after the glucose dose from each mouse. The animals were then killed by exsanguination and the livers collected.
Plasma glucose was determined by use of enzymatic kits purchased from Audit Diagnostics Co. (Cork, Ireland). Plasma aspartate aminotransferase (AST) and alanine aminotransferase (ALT) activities were measured by using commercial kits purchased from Randox Laboratories (Antrim, UK).

[6] = obese mice, 2 g/kg APE or 50 mg/kg AND for 5 days, day 6 tolbutamide 20 mg/kg oral, 30 min later glucose 1 g/kg oral

SMILES: C=C1CC[C@@H]2[C@](C)(CO)[C@H](O)CC[C@@]2(C)[C@@H]1C/C=C1/C(=O)OC[C@H]1O [andrographolide, Andrographolide]
- Midazolam 1-hydroxylase (3A) [1]: 320 ± 84^ab pmol/min/mg protein
- UDP-glucuronosyltransferase activity [2]: 21.1 ± 6.5^a nmol/min/mg protein
- Glutathione S-transferase activity [3]: 634 ± 62 nmol/min/mg protein
- CYP2E1 protein or mRNA levels compared with controls [4]: no changes
- Hypoglycemic effect of tolbutamide in a glucose tolerance test ([5]; high-fat diet-induced obese mice treated with APE or andrographolide): not changed
- Plasma glucose, time 0 h [5, 6]: 80 ± 7^a mg/dL
- Plasma glucose, time 0.25 h [5, 6]: 152 ± 37^a mg/dL
- Plasma glucose, time 0.5 h [5, 6]: 124 ± 28^ab mg/dL
- Plasma glucose, time 1 h [5, 6]: 99 ± 29 mg/dL
- Plasma glucose, time 2 h [5, 6]: 88 ± 28 mg/dL
- Plasma glucose, time 4 h [5, 6]: 76 ± 17^a mg/dL
- Plasma glucose, time 8 h [5, 6]: 80 ± 17^a mg/dL
- Fasting blood glucose level ([5]; obese mice, APE or andrographolide for 5 days, fasted overnight): 80 ± 7 mg/dL
- Area under the plasma glucose concentration versus time curve (AUC0–8 h) ([5]; obese mice, APE or andrographolide for 5 days, then tolbutamide and glucose load): 171 ± 42 mg·h/dL
